According to EPA's ToxRefDB 2:

Legend:
rat [1] = conditions: Subchronic oral toxicity in rodents, sprague dawley, Feed, dose end: 90 day, group: systemic
dog [2] = conditions: Subchronic oral toxicity in nonrodent, beagle, Feed, dose end: 13 week, group: systemic, systemic / clinical chemistry / alanine aminotransferase (alt/sgpt) / alanine aminotransferase (alt/sgpt) + systemic / clinical chemistry / …
rat [3] = conditions: Subchronic oral toxicity in rodents, sprague dawley, Feed, dose end: 90 day, group: systemic, systemic / hematology / erythrocyte (rbc) count differential / erythrocyte (rbc) + systemic / hematology / hematocrit (hct) / hematocrit (…
rat [4] = conditions: Combined chronic toxicity/carcinogenicity; other; Oral; Feed; dose end: 22 month; group: systemic; systemic / hematology / erythrocyte (rbc) count differential / erythrocyte (rbc) + systemic / hematology / hematocrit (hct) / hematocrit (…
mouse [5] = conditions: Carcinogenicity; cd1; Oral; Feed; dose end: 18 month; group: systemic; systemic / organ weight / liver / absolute + systemic / organ weight / liver / relative to body weight + systemic / pathology microscopic / …
dog [6] = conditions: Chronic toxicity, beagle, Oral, Feed, dose end: 52 week, group: systemic
rabbit [7] = conditions: Prenatal developmental toxicity study, new zealand white, Oral, Gavage/Intubation, dose end: 19 GD
rat [8] = conditions: Prenatal developmental toxicity study, sprague dawley, Oral, Gavage/Intubation, dose end: 16 GD
rat [9] = conditions: Subchronic oral toxicity in rodents, sprague dawley, Feed, dose end: 90 day, group: systemic; remark: listed apart in the source
mouse [10] = conditions: Carcinogenicity; b6c3f1; Oral; Feed; dose end: 104 week; group: systemic; systemic / pathology microscopic / liver / cellular alteration + systemic / pathology microscopic / liver / fatty change + systemic / …
mouse [11] = conditions: Subchronic oral toxicity in rodents, other, Feed, dose end: 13 week, group: systemic
rat [12] = conditions: Multigenerational reproductive toxicity study, sprague dawley, Oral, Feed, dose end: 2 generation
dog [13] = conditions: Chronic toxicity; beagle; Oral; Feed; dose end: 52 week; group: systemic; systemic / organ weight / liver / absolute + systemic / organ weight / liver / relative to body weight + systemic / pathology gross / liver…
mouse [14] = conditions: Sub-acute repeat dose toxicity, other, Oral, Feed, dose end: 4 week, group: systemic
rat [15] = conditions: Subchronic oral toxicity in rodents, sprague dawley, Feed, dose end: 13 week, group: systemic
rat [16] = conditions: Combined chronic toxicity/carcinogenicity, sprague dawley, Oral, Feed, dose end: 104 week
rabbit [17] = conditions: Prenatal developmental toxicity study, new zealand white, Oral, Gavage/Intubation, dose end: 18 GD
[18] = systemic / clinical chemistry / aspartate aminotransferase (ast/sgot) / aspartate aminotransferase (ast/sgot)
[19] = systemic / in life observation / body weight / body weight + systemic / in life observation / body weight / body weight gain + systemic / …
[20] = group: developmental, systemic / in life observation / body weight / fetal weight
[21] = group: maternal, reproductive / reproductive performance / aborted / aborted + systemic / in life observation / clinical signs / body surface staining + …
[22] = group: developmental, developmental / developmental malformation / bone / cervical + systemic / in life observation / body weight / fetal weight
[23] = group: developmental, developmental / developmental malformation / bone / cervical + systemic / in life observation / body weight / fetal weight + developmental…
[24] = group: maternal, systemic / in life observation / body weight / body weight gain + systemic / in life observation / food consumption / food consumption + …
[25] = systemic / pathology microscopic / liver / hypertrophy
[26] = systemic / in life observation / body weight / body weight + systemic / in life observation / body weight / body weight gain + systemic / in…
[27] = group: offspring, developmental / developmental malformation / trunk / [other] + developmental / developmental malformation / ureter / hydroureter + systemic…
[28] = group: parental, systemic / in life observation / body weight / body weight + systemic / organ weight / pituitary gland / relative to body weight + systemic…
[29] = group: parental, systemic / organ weight / pituitary gland / relative to body weight + systemic / in life observation / water consumption / water consumption…
[30] = systemic / organ weight / liver / absolute + systemic / organ weight / liver / relative to body weight + systemic / pathology microscopic / …
[31] = systemic / organ weight / liver / absolute
[32] = systemic / organ weight / liver / absolute + systemic / organ weight / kidney / absolute + systemic / organ weight / kidney / relative to …
[33] = group: cholinesterase, cholinesterase / cholinesterase / cholinesterase / erythrocyte cholinesterase (che) + cholinesterase / cholinesterase / cholinesterase / …
[34] = group: systemic, systemic / pathology microscopic / liver / eosinophilic focus
[35] = group: systemic, systemic / pathology microscopic / liver / eosinophilic focus + systemic / pathology microscopic / liver / hypertrophy
[36] = group: developmental, developmental / developmental malformation / bone / full supernumerary
[37] = group: developmental, developmental / developmental malformation / bone / full supernumerary + systemic / in life observation / body weight / fetal weight

In the case of `COC(=O)c1cccc(C)c1S(=O)(=O)NC(=O)Nc1nc(OCC(F)(F)F)nc(N(C)C)n1` [Triflusulfuron-methyl], the LEL (rat [1]; [18]) is reported as 7.71 mg/kg/day, the NEL (rat [1]; [18]) is reported as less than 7.71 mg/kg/day and the LOAEL (rat [1]; systemic / in life observation / body weight / body weight gain + systemic / in life observation / food consumption / food efficiency) is reported as 133 mg/kg/day. It also gave an NOAEL (rat [1]; systemic / in life observation / body weight / body weight gain + systemic / in life observation / food consumption / food efficiency + …) of 6.56 mg/kg/day, an LEL (dog [2]) of 147 mg/kg/day and an LOAEL (dog [2]) of 147 mg/kg/day. For the same molecule, the NEL (dog [2]) was 3.9 mg/kg/day, the NOAEL (dog [2]) was 3.9 mg/kg/day and the LEL (rat [3]) was 127 mg/kg/day. It also gave an LOAEL (rat [3]) of 127 mg/kg/day, an NEL (rat [3]) of 6.2 mg/kg/day and an NOAEL (rat [3]) of 6.2 mg/kg/day. It also gave an LEL (rat [4]) of 30.6 mg/kg/day, an LOAEL (rat [4]) of 30.6 mg/kg/day and an NEL (rat [4]) of 4.06 mg/kg/day. The NOAEL (rat [4]) was 4.06 mg/kg/day, the LEL (mouse [5]) was 349 mg/kg/day and the LOAEL (mouse [5]) was 349 mg/kg/day. It also gave an NEL (mouse [5]) of 20.9 mg/kg/day, an NOAEL (mouse [5]) of 20.9 mg/kg/day and an LEL (dog [6]; [19]) of 26.9 mg/kg/day. For the same molecule, the NEL (dog [6]; [19]) was 1 mg/kg/day, the LOAEL (dog [6]; systemic / organ weight / liver / relative to body weight + systemic / pathology microscopic / liver / hypertrophy) was 95.5 mg/kg/day and the NOAEL (dog [6]; systemic / organ weight / liver / relative to body weight + systemic / pathology microscopic / liver / hypertrophy + systemic / clinical …) was 27.7 mg/kg/day. The LEL (rabbit [7]; [20]) was 270 mg/kg/day, the LOAEL (rabbit [7]; [20]) was 270 mg/kg/day and the NEL (rabbit [7]; [20]) was 90 mg/kg/day. For the same molecule, the NOAEL (rabbit [7]; [20]) was 90 mg/kg/day, the LEL (rabbit [7]; [21]) was 270 mg/kg/day and the LOAEL (rabbit [7]; [21]) was 270 mg/kg/day. The NEL (rabbit [7]; [21]) was 90 mg/kg/day and the NOAEL (rabbit [7]; [21]) was 90 mg/kg/day.

`CCCOCC(=Nc1ccc(Cl)cc1C(F)(F)F)n1ccnc1` [Triflumizole] was tested, and the LEL (rat [8]; [22]) was 35 mg/kg/day, the LOAEL (rat [8]; [22]) was 35 mg/kg/day and the NEL (rat [8]; [23]) was 10 mg/kg/day. For the same molecule, the NOAEL (rat [8]; [23]) was 10 mg/kg/day, the LEL (rat [8]; [24]) was 35 mg/kg/day and the LOAEL (rat [8]; [24]) was 35 mg/kg/day. For the same molecule, the NEL (rat [8]; [24]) was 10 mg/kg/day, the NOAEL (rat [8]; [24]) was 10 mg/kg/day and the LEL (rat [9]; [25]) was 4.1 mg/kg/day. It also gave an NEL (rat [9]; [25]) of less than 4.1 mg/kg/day, an LOAEL (rat [9]; systemic / pathology microscopic / liver / hypertrophy + systemic / pathology microscopic / liver / vacuolization) of 40.9 mg/kg/day and an NOAEL (rat [9]; systemic / pathology microscopic / liver / hypertrophy + systemic / pathology microscopic / liver / vacuolization + systemic / hematology / …) of 4.1 mg/kg/day. For the same molecule, the LEL (mouse [10]) was 67.4 mg/kg/day, the LOAEL (mouse [10]) was 67.4 mg/kg/day and the NEL (mouse [10]) was 16.2 mg/kg/day. The NOAEL (mouse [10]) was 16.2 mg/kg/day, the LOAEL (mouse [11]; systemic / in life observation / body weight / body weight + systemic / in life observation / body weight / body weight gain) was 381 mg/kg/day and the LEL (mouse [11]; [26]) was 381 mg/kg/day. It also gave an NEL (mouse [11]; [26]) of 33.1 mg/kg/day, an NOAEL (mouse [11]; [26]) of 33.1 mg/kg/day and an LOAEL (rat [12]; group: offspring, developmental / developmental malformation / trunk / [other] + developmental / developmental malformation / ureter / hydroureter) of 8.5 mg/kg/day. For the same molecule, the LEL (rat [12]; [27]) was 8.5 mg/kg/day, the NEL (rat [12]; [27]) was 3.5 mg/kg/day and the NOAEL (rat [12]; [27]) was 3.5 mg/kg/day. It also gave an LOAEL (rat [12]; [28]) greater than 8.5 mg/kg/day, an NOAEL (rat [12]; [28]) of no less than 8.5 mg/kg/day and an LEL (rat [12]; [29]) of 1.5 mg/kg/day. For the same molecule, the NEL (rat [12]; [29]) was less than 1.5 mg/kg/day, the NOAEL (rat [12]; group: reproductive, reproductive / reproductive performance / gestational length / gestational length) was 3.5 mg/kg/day and the LOAEL (rat [12]; group: reproductive, reproductive / reproductive performance / gestational length / gestational length + reproductive / offspring survival early / litter size / …) was 8.5 mg/kg/day. It also gave an NEL (rat [12]; group: reproductive, reproductive / reproductive performance / gestational length / gestational length + reproductive / reproductive performance / mating / …) of 1.5 mg/kg/day, an LEL (rat [12]; group: reproductive, reproductive / reproductive performance / mating / mating) of 3.5 mg/kg/day and an LEL (dog [13]) of 34.1 mg/kg/day. For the same molecule, the LOAEL (dog [13]) was 34.1 mg/kg/day, the NEL (dog [13]) was 10 mg/kg/day and the NOAEL (dog [13]) was 10 mg/kg/day. For the same molecule, the LOAEL (mouse [14]; [30]) was 397 mg/kg/day, the NEL (mouse [14]; [30]) was 3.8 mg/kg/day and the NOAEL (mouse [14]; [30]) was 40.3 mg/kg/day. The LEL (mouse [14]; systemic / organ weight / liver / relative to body weight + systemic / urinalysis / glucose / glucose) was 40.3 mg/kg/day, the LEL (rat [15]; [31]) was 1.4 mg/kg/day and the NEL (rat [15]; [31]) was less than 1.4 mg/kg/day. The LOAEL (rat [15]; [32]) was 176 mg/kg/day, the NOAEL (rat [15]; [32]) was 15.3 mg/kg/day and the LEL (rat [16]; [33]) was 14.4 mg/kg/day. It also gave an LOAEL (rat [16]; [33]) greater than 59.4 mg/kg/day, an NEL (rat [16]; [33]) of 3.5 mg/kg/day and an NOAEL (rat [16]; [33]) of no less than 59.4 mg/kg/day. It also gave an LOAEL (rat [16]; [34]) of 3.5 mg/kg/day, an NOAEL (rat [16]; [34]) of less than 3.5 mg/kg/day and an LEL (rat [16]; [35]) of 3.5 mg/kg/day. For the same molecule, the NEL (rat [16]; [35]) was less than 3.5 mg/kg/day, the LEL (rabbit [17]; [36]) was 100 mg/kg/day and the LOAEL (rabbit [17]; [36]) was 100 mg/kg/day. The NEL (rabbit [17]; [37]) was 50 mg/kg/day, the NOAEL (rabbit [17]; [37]) was 50 mg/kg/day and the LEL (rabbit [17]; [24]) was 100 mg/kg/day. It also gave an LOAEL (rabbit [17]; [24]) of 100 mg/kg/day, an NEL (rabbit [17]; [24]) of 50 mg/kg/day and an NOAEL (rabbit [17]; [24]) of 50 mg/kg/day.
